# pIC50: −log10 of the molar value. Activity calls are given as the source filed them. No cut-off for these calls is given here.
# Legend:
# [1] = Inhibition of AAC(6')-1b (unknown origin) expressed in Escherichia coli TOP10 assessed as reduction in acetylation of kanamycin A in presence of acetyl CoA by DTNB based microplate reader analysis
# [2] = Inhibition of AAC(6')-1b (unknown origin) expressed in Escherichia coli TOP10 assessed as reduction in acetylation of amikacin in presence of acetyl CoA by DTNB based microplate reader analysis
# [3] = Uncompetitive inhibition of AAC(6')-1b (unknown origin) expressed in Escherichia coli TOP10 assessed as reduction in acetylation of kanamycin A in presence of varying acetyl CoA by DTNB based microplate reader analysis
# [4] = Mixed-noncompetitive inhibition of AAC(6')-1b (unknown origin) expressed in Escherichia coli TOP10 assessed as reduction in acetylation of kanamycin A in presence of varying kanamycin A and in presence of fixed acetyl CoA level by DTNB based microplate reader analysis
# Klebsiella pneumoniae = test: Inhibition of AAC(6')-1b in amikacin-resistant Klebsiella pneumoniae harboring AAC(6')-1b assessed as growth inhibition in presence of amikacin
# Acinetobacter baumannii [5] = test: Inhibition of AAC(6')-1b in amikacin-resistant Acinetobacter baumannii A155 harboring AAC(6')-1b assessed as growth inhibition at 50 uM in presence of 8 ug/ml amikacin
# Acinetobacter baumannii [6] = test: Inhibition of AAC(6')-1b in amikacin-resistant Acinetobacter baumannii A155 harboring AAC(6')-1b assessed as growth inhibition at 100 uM in presence of 6 ug/ml amikacin
structure (smiles),measurement,setting,value
NCCc1cccc(CN2CCC(O)(CN3CCCCC3)C2)c1 (racemic),pIC50,[1],4.40
same,pIC50,[2],4.46
same,inhibition,[3],Active
same,inhibition,[4],Active
same,growth inhibition (GI),Klebsiella pneumoniae,inactive
same,inhibition,Acinetobacter baumannii [5],Active
same,inhibition,Acinetobacter baumannii [6],Active

# Source: ChEMBL document CHEMBL3779835, “Identification of an Inhibitor of the Aminoglycoside 6'-N-Acetyltransferase type Ib [AAC(6')-Ib] by Glide Molecular Docking” (Medchemcomm, 2016)
